Assay results reported in ChEMBL document CHEMBL1157124, “Synthesis and anticancer evaluation of alpha-lipoic acid derivatives” (Bioorg Med Chem Lett, 2010).

Key:
Assay type in all cases: functional
[1] = Cytotoxicity against human HO8910 cells assessed as growth inhibition at 0.1 ug/ml after 24 hrs by MTT assay; conditions: HO-8910, 24 h, read-out: GI
NCI-H460 [2] = assay: Cytotoxicity against human NCI-H460 cells assessed as growth inhibition at 100 ug/ml after 24 hrs by MTT assay; conditions: NCI-H460, 24 h, read-out: GI
[3] = Cytotoxicity against human HO8910 cells assessed as growth inhibition at 10 ug/ml after 24 hrs by MTT assay; conditions: HO-8910, 24 h, read-out: GI
[4] = Cytotoxicity against human HO8910 cells assessed as growth inhibition at 1 ug/ml after 24 hrs by MTT assay; conditions: HO-8910, 24 h, read-out: GI
NCI-H460 [5] = assay: Cytotoxicity against human NCI-H460 cells assessed as growth inhibition at 1 ug/ml after 24 hrs by MTT assay; conditions: NCI-H460, 24 h, read-out: GI
Bel-7402 [6] = assay: Cytotoxicity against human Bel7402 cells assessed as growth inhibition at 1 ug/ml after 24 hrs by MTT assay; conditions: Bel-7402, 24 h, read-out: GI
Bel-7402 [7] = assay: Cytotoxicity against human Bel7402 cells assessed as growth inhibition at 0.1 ug/ml after 24 hrs by MTT assay; conditions: Bel-7402, 24 h, read-out: GI
NCI-H460 [8] = assay: Cytotoxicity against human NCI-H460 cells assessed as growth inhibition at 10 ug/ml after 24 hrs by MTT assay; conditions: NCI-H460, 24 h, read-out: GI
KB [9] = assay: Cytotoxicity against human KB cells assessed as growth inhibition at 0.1 ug/ml after 24 hrs by MTT assay; conditions: read-out: GI
NCI-H460 [10] = assay: Cytotoxicity against human NCI-H460 cells assessed as growth inhibition at 0.1 ug/ml after 24 hrs by MTT assay; conditions: NCI-H460, 24 h, read-out: GI
Bel-7402 [11] = assay: Cytotoxicity against human Bel7402 cells assessed as growth inhibition at 100 ug/ml after 24 hrs by MTT assay; conditions: Bel-7402, 24 h, read-out: GI
KB [12] = assay: Cytotoxicity against human KB cells assessed as growth inhibition at 100 ug/ml after 24 hrs by MTT assay; conditions: read-out: GI
Bel-7402 [13] = assay: Cytotoxicity against human Bel7402 cells assessed as growth inhibition at 10 ug/ml after 24 hrs by MTT assay; conditions: Bel-7402, 24 h, read-out: GI
[14] = Cytotoxicity against human HO8910 cells assessed as growth inhibition at 100 ug/ml after 24 hrs by MTT assay; conditions: HO-8910, 24 h, read-out: GI
KB [15] = assay: Cytotoxicity against human KB cells assessed as growth inhibition at 10 ug/ml after 24 hrs by MTT assay; conditions: read-out: GI
KB [16] = assay: Cytotoxicity against human KB cells assessed as growth inhibition at 1 ug/ml after 24 hrs by MTT assay; conditions: read-out: GI

SMILES | inhibition of growth at 0.1 µg/mL [1] [%] | inhibition of growth at 100 µg/mL (NCI-H460 [2]) [%] | inhibition of growth at 10 µg/mL [3] [%] | inhibition of growth at 1 µg/mL [4] [%] | inhibition of growth at 1 µg/mL (NCI-H460 [5]) [%] | inhibition of growth at 1 µg/mL (Bel-7402 [6]) [%] | inhibition of growth at 0.1 µg/mL (Bel-7402 [7]) [%] | inhibition of growth at 10 µg/mL (NCI-H460 [8]) [%] | inhibition of growth at 0.1 µg/mL (KB [9]) [%] | inhibition of growth at 0.1 µg/mL (NCI-H460 [10]) [%] | inhibition of growth at 100 µg/mL (Bel-7402 [11]) [%] | inhibition of growth at 100 µg/mL (KB [12]) [%] | inhibition of growth at 10 µg/mL (Bel-7402 [13]) [%] | inhibition of growth at 100 µg/mL [14] [%] | inhibition of growth at 10 µg/mL (KB [15]) [%] | inhibition of growth at 1 µg/mL (KB [16]) [%]
O=C(CCCCC1CCSS1)Nc1ccccc1Cl (stereo not drawn) | 8.17 | 3.38 | 4.66 | 7.74 | 10.1 | 5.33 | 6.83 | 14.6 | 5.11 | 8 | 4.74 | 0.72 |  |  |  | 
O=C(CCCCC(S)CCS)Nc1cccc(C(F)(F)F)c1 (stereo not drawn) | 10.8 | 32.1 | 8.86 | 13.7 | 8.26 | 1.66 | 2.85 | 11.4 | 8.41 | 11.9 | 25.3 | 30.5 | 1.21 | 34.8 | 1.97 | 
CC(=O)SCCC(CCCCC(=O)Nc1ccccc1)SC(C)=O (stereo not drawn) | 8.33 | 44.8 | 3.2 | 10.6 | 13.1 | 2.84 |  | 14.2 | 7.24 | 15.4 | 14.1 | 22.9 |  | 22.3 | 2.5 | 1.68
O=C(CCCCC(CCSC(=O)c1ccccc1)SC(=O)c1ccccc1)Nc1ccccc1Cl (stereo not drawn) |  |  | 1.33 | 2.35 | 14.4 | 7.37 | 5.72 | 12.1 | 3.62 | 15.1 |  |  | 6.63 |  | 2.53 | 3.05
O=C(CCCCC(S)CCS)Nc1ccc(F)cc1 (stereo not drawn) | 8.11 | 41.6 | 6.81 | 12.2 | 6.84 |  |  | 18.1 | 6.78 | 5.64 | 11.7 | 28.2 | 6.14 | 22.2 | 13.3 | 8.84
CC(=O)SCCC(CCCCC(=O)Nc1ccc(Cl)cc1)SC(C)=O (stereo not drawn) | 1.81 | 47.3 | 1.47 | 0.35 | 15.4 | 3.07 | 9.96 | 14.8 | 11.4 | 9.89 | 45.5 | 72 | 5.78 | 58.8 | 18.1 | 14.8
O=C(CCCCC(S)CCS)Nc1ccccc1 (stereo not drawn) | 7.37 | 25.4 | 5.49 | 6.38 | 4.3 | 1.32 | 0.85 | 8.37 | 9.49 | 5.5 | 7.67 | 15.8 | 3.72 | 13.7 | 8.62 | 11.6
